Columns and labels:
[1] = Pharmacokinetic evaluation in Nu/Nu mice (plasma, LC-MS/MS); format: in vivo; settings: mouse, in vivo, po, i.g., 100 mg/kg
Description: Using Nu/Nu mice as the test animals, the plasma concentrations of the example compounds at different time points were determined by LC-MS/MS following oral gavage (i.g.) administration. The pharmacokinetic behaviours of the compounds of the present disclosure in Nu/Nu mice were investigated, and their pharmacokinetic profiles were evaluated.
Compound 1-p1, compound 2-p1, compound 8-p1 and comparative example 1.
A total of 36 female Nu/Nu mice (supplied by Vital River Laboratory Animal Technology Co., Ltd.) were randomly divided into 4 groups.
An appropriate amount of each test compound was weighed and dissolved in 5% DMSO+20% PEG400+70% (10% TPGS)+5% (1% HMPC K100LV) to prepare a 10 mg/mL colourless clear solution.
The administration dosage was 100 mg/kg, and the administration volume was 10 mL/kg.
Mice were not fasted. After oral gavage administration, blood (0.1 mL) was collected from the orbital cavity before administration, and at 0.25 h, 0.5 h, 1.0 h, 2.0 h, 4.0 h, 6.0 h, 8.0 h, 11.0 h and 24.0 h after administration. The blood was placed into EDTA-K2 anticoagulant tubes and centrifuged at 10000 rpm for 1 minute (4°C) to separate plasma. The plasma was separated within 1 h and stored at -20°C until analysis. The entire process from blood collection to centrifugation was performed in ice bath conditions.
Determination of test compound contents in plasma of Nu/Nu mice after administration of different compounds: To 20 µL of plasma samples from each time point in Nu/Nu mice, 200 µL of acetonitrile and 25 µL of verapamil (100 ng/mL) were added. The mixture was vortex-mixed for 5 minutes and centrifuged at 4000 rpm for 15 minutes. 90 µL of water and 90 µL of the supernatant were vortex-mixed for 5 minutes. 2 µL (for compound 1-p1), 2 µL (for compound 2-p1), 1 µL (for compound 8-p1), or 0.5 µL (for comparative example 1) of the supernatant was taken for LC-MS/MS analysis receptively.

HCT116 MTAP-/- cells = test: HCT116 MTAP-/- cell proliferation assay (CellTiter-Glo, 10 days); format: cell-based; settings: Homo sapiens, HCT-116, 240 h, growth inhibition, CTG assay Day 10
Source text: • I. Experimental materials and instruments • 1. HCT116 cell line (Nanjing Kebai Biotechnology Co., Ltd., CBP60028) • 2. HCT116 MTAP-/- cell line (Nanjing Kebai Biotechnology Co., Ltd., CBP75002) • 3. DMSO (Sigma, D2650) • 4. McCoy's 5A medium (Gibco, 16600-082) • 5. Foetal bovine serum (FBS) (Gibco, 10091148) • 6. Phosphate buffered saline (DPBS) pH 7.4 (Gibco, 14190-144) • 7. Pen strep (PS) (Gibco, 15140-122) • 8. 0.25% Typsin-EDTA (1×) (Gibco, 25200-072) • 9. CellTiter-Glo® Luminescent Cell Viability Assay (Promega, G7572) • 10. 96-well round-bottom plate (JET, TCP002096) • 11. 96-well black clear bottom plate (Hangzhou Xinyou Biotechnology Co., Ltd., 060096) • 12. 1.2 mL 96-well deep well plate, clear, sterile, square-well, V-bottom (Titan, 02089063) • 13. 15-mL centrifuge tube (Titan) • 14. Biosafety cabinet (Thermo, 1300AII) • 15. Cell counter (Countstar, IC1000) • 16. Incubator (Thermo, I160) • 17. Centrifuge (Beckman coulter, Allegra X-12 centrifuge) • 18. PHERAstar FS microplate reader (BMG Labtech) • II. Experimental procedure • 1. Cell plating (Day 0) • a) The cell morphology was observed under a microscope to ensure confluence reached approximately 90%. • b) The cell supernatant was aspirated, the cells were washed once with PBS, and then the PBS was removed; and the cells were digested by adding an appropriate amount of trypsin, and left to stand at 37°C for 3 minutes. • c) The digestion was terminated by adding an equal volume of McCoy's 5A medium containing 10% FBS, and the cell suspension was collected and centrifuged at 300 g for 3 minutes; and the cells were resuspended in an appropriate amount of fresh medium. • d) The resuspended cell suspension was taken for counting. • e) The cell suspension was diluted to 1e4/mL using McCoy's 5A medium containing 10% FBS, and seeded at 50 µL per well, corresponding to 500 cells/well for HCT116 and 500 cells/well for HCT116 MTAP-/-. • f) The cell plate was placed in a 37°C, 5% carbon dioxide incubator and incubated overnight. • 2. Compound treatment (Day 1) • a) Each compound was serially diluted in DMSO to generate a 9-point concentration gradient (starting concentration: 10000 µM, 3-fold dilution; the highest concentration may be adjusted individually based on IC50 of different compounds); for example, in a 96-well round-bottom compound-dilution plate, 5 µL of the compound was sequentially diluted into 10 µL of DMSO. • b) Each concentration point of every compound was then diluted 250-fold into the corresponding volume of McCoy's 5A medium. • c) To each cell plate, 50 µL of the diluted compound solution as described above was added sequentially to the cell supernatant (50 µL/well). • d) The compound-treated cell plate was placed in a 37°C, 5% carbon dioxide incubator and incubated. • 3. Re-digestion, re-plating and compound treatment (Day 5) • a) After 5 days of compound treatment, the compound-containing medium was aspirated, and the cells were rinsed once with PBS (100 µL/well); and the PBS was removed immediately. • b) The cells were digested by adding 25 µL of trypsin and incubated at 37°C for 3 minutes, and then the digestion was terminated by adding 175 µL/well of McCoy's 5A medium containing 10% FBS. • c) The cells were mixed thoroughly using a pipette, and re-plated at 1 : 20; and specifically, 10 µL of the cell suspension was aspirated to a new 96-well plate (pre-filled with 40 µL of McCoy's 5A medium containing 10% FBS. • d) Compounds were prepared and added according to steps a) to c) in Section 2, with 50 µL added per well. • e) The compound-treated cell plate was placed in a 37°C, 5% carbon dioxide incubator and incubated. • 4. […]

[2] = molecular target: T1, Recombinant human PRMT5: MEP50 protein (Homo sapiens, UniProt O14744); test: Inhibitory activity against human PRMT5 enzymatic activity (HTRF quantification of SAH, +MTA); format: biochemical; settings: +1 µM MTA; histone H4 peptide substrate (1-21), SAM; 37°C 120 min
T1 construct: purchased active motif 31521
Description: • 1. Recombinant human PRMT5: MEP50 protein (active motif, 31521) • 2. EPIgeneous Methyltransferase kit (cisbio, 62SAHPEH) • 3. 96-well plate (Sangon Biotech, F610960-0010) • 4. 384-well white plate (Perkin Elmer, 6007290) • 5. 1 M Tris-HCl [pH 8.5] (Sangon Biotech, B548141) • 6. Histone H4 peptide substrates (1-21) (BPS bioscience, 52014) • 7. 5'-deoxy-5'-(methylthio)adenosine (Aladdin, D168979-25 mg) • 8. Tween-20 (Sangon Biotech, A100777-0500) • 9. DMSO (Sigma, D2650) • 10. Incubator (Shanghai Boxun Medical Biological Instrument Corp.) • 11. PHERAstar FS microplate reader (BMG Labtech)
PRMT5 can induce the transfer of a methyl group from S-adenosylmethionine (SAM) to a histone H4 peptide substrate (1-21), generating S-adenosylhomocysteine (SAH). In this experiment, the amount of SAH produced in the reaction is quantified using a Homogeneous Time-Resolved Fluorescence (HTRF) method to evaluate the inhibitory activity of compounds against PRMT5 enzymatic activity.
The sample diluent containing (or not containing) 1 µM 5 '-deoxy-5' - (methylthiyl) adenosine (MTA) was prepared using the EPIgeneous Diluent Buffer from the EPIgeneous Methyltransferase kit. With reference to the instructions, SAM and SAH standards were serially diluted and dispensed at 10 µL per well (in duplicate for each concentration). 2 µL of EPIgeneous Detection Buffer 1 was added to each well, and the plate was centrifuged, shaken to mix thoroughly, and placed at room temperature for 10 min. The SAH d2 Reagent was diluted 32-fold with EPIgeneous Detection Buffer 2, and 4 µL of the diluted SAH-d2 solution was added to each well. The plate was centrifuged and shaken for 2 min to mix thoroughly. The SAH Tb Cryptate Antibody was diluted 50-fold in EPIgeneous Detection Buffer 2. 4 µL of the diluted Tb Cryptate Antibody solution was added to each well, and the plate was centrifuged, shaken for 2 min to mix thoroughly, and left to stand at room temperature for 60 min, followed by reading on a PHERAstar FS microplate reader to obtain the 665/620 ratio. Plotting SAH concentration against the ratio to generate an x-y curve yields a corresponding calculation formula.
Reaction buffer (1×): 50 mM Tris-HCl [pH 8.5], 1 mM DTT, 0.005% Tween-20.
Compound preparation: a 20 mM solution of test compound in 100% DMSO was diluted in 100% DMSO to 1 mM as the highest concentration, and the solution at this concentration was then subjected to a 10-point, 3-fold serial dilution in 100% DMSO in a 96-well plate. Wells containing 100% DMSO served as the blank control. The above-described serially diluted compounds and the 100% DMSO were diluted 20-fold with the reaction buffer to prepare 5× compound solutions, which were mixed thoroughly for use.
The PRMT5:MEP50 was diluted in the reaction buffer to a final concentration of 12.5 nM. Then, 4 µL of the 12.5 nM PRMT5:MEP50 solution was added to each well of a 384-well plate. Wells containing 4 µL of the reaction buffer served as the negative control wells. 2 µL of the 5× compound solution was added to each well. For the negative control wells (no enzyme, no compound) and the positive control wells (no compound), 2 µL of 5% DMSO was added. The plate was sealed with a membrane, centrifuged, shaken for 2 min to mix thoroughly, and placed at room temperature for 20 min.
Preparation of substrate mixture solution: The substrate mixture solution containing 1.5 µM histone H4 peptide substrate (1-21) and 2.5 µM SAM, or 1.5 µM histone H4 peptide substrate (1-21), 2.5 µM SAM and 2.5 µM MTA was prepared in the reaction buffer.
The reaction was initiated by adding 4 µL of the substrate mixture solution (-/+ MTA) to each well. The plate was sealed with a membrane, centrifuged, shaken for 2 min to mix thoroughly, and incubated at 37°C for 120 min in a constant temperature incubator.
Detection: The detection was performed by using the EPIgeneous Methyltransferase kit. […]

T1 sequence (O14744 whole entry): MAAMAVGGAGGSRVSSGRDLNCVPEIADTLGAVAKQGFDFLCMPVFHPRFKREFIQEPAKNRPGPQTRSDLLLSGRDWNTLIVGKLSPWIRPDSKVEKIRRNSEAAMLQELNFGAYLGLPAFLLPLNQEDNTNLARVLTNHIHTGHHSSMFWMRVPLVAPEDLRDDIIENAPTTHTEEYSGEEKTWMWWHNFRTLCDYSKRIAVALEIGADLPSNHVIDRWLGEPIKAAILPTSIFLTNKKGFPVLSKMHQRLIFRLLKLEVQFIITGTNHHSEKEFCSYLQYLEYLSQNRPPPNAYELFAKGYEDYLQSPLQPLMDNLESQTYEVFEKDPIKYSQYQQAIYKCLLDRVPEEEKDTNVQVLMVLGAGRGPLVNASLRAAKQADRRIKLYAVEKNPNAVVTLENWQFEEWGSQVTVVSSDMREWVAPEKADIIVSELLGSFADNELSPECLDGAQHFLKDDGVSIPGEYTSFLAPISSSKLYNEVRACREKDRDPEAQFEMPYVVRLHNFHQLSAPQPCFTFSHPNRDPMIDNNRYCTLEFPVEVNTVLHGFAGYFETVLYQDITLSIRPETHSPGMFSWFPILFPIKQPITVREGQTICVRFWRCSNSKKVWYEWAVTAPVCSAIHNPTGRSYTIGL
T1 sequence (Q9BQA1 whole entry partner): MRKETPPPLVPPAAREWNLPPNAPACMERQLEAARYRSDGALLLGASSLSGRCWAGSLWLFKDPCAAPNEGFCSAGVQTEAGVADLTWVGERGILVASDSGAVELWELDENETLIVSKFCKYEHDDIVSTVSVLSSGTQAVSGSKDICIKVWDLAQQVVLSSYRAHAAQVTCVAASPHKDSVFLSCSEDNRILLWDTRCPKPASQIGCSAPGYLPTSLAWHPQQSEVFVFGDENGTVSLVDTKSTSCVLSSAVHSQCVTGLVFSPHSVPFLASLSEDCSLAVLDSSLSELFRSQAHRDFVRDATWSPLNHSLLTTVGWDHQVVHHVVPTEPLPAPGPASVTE

SMILES	IC50 [2] [nM]	further results
Cn1ncc(-c2ccc3c(=O)[nH]nc(CN)c3c2)c1-c1c(F)cc2c(c1C#N)OCCO2 (atropisomer, axis not shown) [Comparative example 1, reference compound]	–	Vd/F ([1]; read-out: Apparent volume of distribution V/F): 132 L/kg; AUC(0-t) ([1]; read-out: Area under the curve AUC0-t): 1720 ng·h/mL; CL/F ([1]; read-out: Clearance CL/F): 960 mL/min/kg; half-life ([1]; read-out: Half life T1/2 (converted)): 1.6 h; Cmax ([1]; read-out: Plasma concentration Cmax): 657 ng/mL; IC50 (HCT116 MTAP-/- cells): 70.8 nM
[2H]C([2H])([2H])n1ncc(-c2ccc3c(=O)[nH]nc(CN)c3c2)c1-c1c(F)c(Cl)c2c(c1C#N)O[C@H]1CC[C@H]1O2 (atropisomer, axis not shown; (M)) [Compound 11-p3, (M)-(2aS,8aR)-5-(4-(4-(aminomethyl)-1-oxo-1,2-dihydrophthalazin-6-yl)-1-(methyl-d3)-1H-pyrazol-5-yl)-7-chloro-6-fluoro-1,2,2a,8a-tetrahydrobenzo[b]cyclobuta[e][1,4]dioxine-4-carbonitrile]	5.4	IC50 (HCT116 MTAP-/- cells): 4.6 nM
Cn1ncc(-c2ccc3c(=O)[nH]nc(CN)c3c2)c1-c1c(F)cc2c(c1C#N)O[C@@H]1CC[C@@H]1O2 (atropisomer, axis not shown; (P)) [Compound 1-p4, (P)-(2aR,8aS)-5-(4-(4-(aminomethyl)-1-oxo-1,2-dihydrophthalazin-6-yl)-1-methyl-1H-pyrazol-5-yl)-6-fluoro-1,2,2a,8a-tetrahydrobenzo[b]cyclobuta[e][1,4]dioxine-4-carbonitrile]	5.48	–
[2H]C([2H])([2H])n1ncc(-c2ccc3c(=O)[nH]nc(CN)c3c2)c1-c1c(F)cc2c(c1C#N)O[C@H]1CC[C@H]1O2 (single isomer, unassigned) [Compound 2-p3]	5.31	–
[2H]C([2H])([2H])n1ncc(-c2ccc3c(=O)[nH]nc(CN)c3c2)c1-c1c(F)cc2c(c1C#N)O[C@@H]1CC[C@@H]1O2 (single isomer, unassigned) [Compound 2-p4]	5.87	–
[2H]C([2H])([2H])n1ncc(-c2ccc3c(=O)[nH]nc(CN)c3c2)c1-c1c(F)cc2c(c1C#N)N1CCC[C@@H]1CO2 (single isomer, unassigned) [Compound 5-p1]	7.67	–
[2H]C([2H])([2H])n1ncc(-c2ccc3c(=O)[nH]nc(CN)c3c2)c1-c1c(F)cc2c(c1C#N)N1CCC[C@@H]1CO2 (single isomer, unassigned) [Compound 5-p2]	4.91	–
[2H]C([2H])([2H])n1ncc(-c2ccc3c(=O)[nH]nc(CN)c3c2)c1-c1c(F)cc2c(c1C#N)N1CCC[C@H]1CO2 (single isomer, unassigned) [Compound 8-p2]	3.86	–
[2H]C([2H])([2H])n1ncc(-c2ccc3c(=O)[nH]nc(CN)c3c2)c1-c1c(F)cc2c(c1C#N)OCC21CC1 [Compound 12, 6-(4-(4-(aminomethyl)-1-oxo-1,2-dihydrophthalazin-6-yl)-1-(methyl-d3)-1H-pyrazol-5-yl)-5-fluoro-2H-spiro[benzofuran-3,1'-cyclopropane]-7-carbonitrile]	6.39	–

Source: EP4759817A1, “HETEROARYL COMPOUND, PREPARATION METHOD THEREFOR, AND USE THEREOF IN MEDICINE” (Jiangsu Hengrui Pharmaceuticals Co., Ltd., priority 2023, dated 2025)
